What was measured:
CK1α = biological target: T1, CK1α (Homo sapiens, UniProt P48729+Q96SW2); assay: HiBiT degradation assay, CK1α, Procedure A; assay type: cell-based; conditions: six hours incubation
T1 construct: CSNK1A1-HiBit KI HEK293(LgBit) Cells; host or cells: HEK293(LgBit) knock-in cells
How it was run: (§1)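 Cells in DMEM + 10% FBS were treated with compound in a ten-point dose response from 10 μM to 0.005 μM (0.1% DMSO) for six hours at 37° C. Lysis with Nano-Glo HiBiT detection reagent followed, with luminescence read. DC50 and Ymin came from a 4-parameter fit.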

GSPT1 = GSPT1 (Homo sapiens, UniProt P15170+Q96SW2); assay: HiBiT degradation assay, GSPT1, Procedure A; assay type: cell-based; design: HiBit-GSPT1 KI HEK293(LgBit) Cells; host or cells: HEK293(LgBit) knock-in cells; conditions: six hours incubation
How it was run: as §1

T1 sequence (P48729 whole entry): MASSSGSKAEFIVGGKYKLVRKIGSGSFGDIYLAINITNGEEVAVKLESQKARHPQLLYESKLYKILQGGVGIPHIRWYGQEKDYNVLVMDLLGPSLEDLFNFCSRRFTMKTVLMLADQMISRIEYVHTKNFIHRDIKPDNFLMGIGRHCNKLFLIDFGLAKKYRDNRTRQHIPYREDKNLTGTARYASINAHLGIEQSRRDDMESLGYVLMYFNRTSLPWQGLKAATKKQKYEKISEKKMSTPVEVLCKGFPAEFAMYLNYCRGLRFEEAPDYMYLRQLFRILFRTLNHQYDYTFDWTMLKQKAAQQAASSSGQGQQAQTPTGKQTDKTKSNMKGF
T1 sequence (Q96SW2 whole entry): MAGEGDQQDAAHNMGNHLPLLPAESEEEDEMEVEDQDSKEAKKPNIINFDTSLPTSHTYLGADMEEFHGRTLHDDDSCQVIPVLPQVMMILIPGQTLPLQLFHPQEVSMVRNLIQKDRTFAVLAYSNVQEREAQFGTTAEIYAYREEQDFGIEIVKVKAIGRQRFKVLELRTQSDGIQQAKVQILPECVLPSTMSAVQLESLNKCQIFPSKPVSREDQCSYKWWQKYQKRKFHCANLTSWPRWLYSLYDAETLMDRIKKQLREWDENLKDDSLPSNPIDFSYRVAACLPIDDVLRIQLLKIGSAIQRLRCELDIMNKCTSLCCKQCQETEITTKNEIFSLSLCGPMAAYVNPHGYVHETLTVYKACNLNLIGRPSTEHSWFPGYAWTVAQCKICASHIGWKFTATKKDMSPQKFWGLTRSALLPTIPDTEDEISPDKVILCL
T1 sequence (Q16531 whole entry partner): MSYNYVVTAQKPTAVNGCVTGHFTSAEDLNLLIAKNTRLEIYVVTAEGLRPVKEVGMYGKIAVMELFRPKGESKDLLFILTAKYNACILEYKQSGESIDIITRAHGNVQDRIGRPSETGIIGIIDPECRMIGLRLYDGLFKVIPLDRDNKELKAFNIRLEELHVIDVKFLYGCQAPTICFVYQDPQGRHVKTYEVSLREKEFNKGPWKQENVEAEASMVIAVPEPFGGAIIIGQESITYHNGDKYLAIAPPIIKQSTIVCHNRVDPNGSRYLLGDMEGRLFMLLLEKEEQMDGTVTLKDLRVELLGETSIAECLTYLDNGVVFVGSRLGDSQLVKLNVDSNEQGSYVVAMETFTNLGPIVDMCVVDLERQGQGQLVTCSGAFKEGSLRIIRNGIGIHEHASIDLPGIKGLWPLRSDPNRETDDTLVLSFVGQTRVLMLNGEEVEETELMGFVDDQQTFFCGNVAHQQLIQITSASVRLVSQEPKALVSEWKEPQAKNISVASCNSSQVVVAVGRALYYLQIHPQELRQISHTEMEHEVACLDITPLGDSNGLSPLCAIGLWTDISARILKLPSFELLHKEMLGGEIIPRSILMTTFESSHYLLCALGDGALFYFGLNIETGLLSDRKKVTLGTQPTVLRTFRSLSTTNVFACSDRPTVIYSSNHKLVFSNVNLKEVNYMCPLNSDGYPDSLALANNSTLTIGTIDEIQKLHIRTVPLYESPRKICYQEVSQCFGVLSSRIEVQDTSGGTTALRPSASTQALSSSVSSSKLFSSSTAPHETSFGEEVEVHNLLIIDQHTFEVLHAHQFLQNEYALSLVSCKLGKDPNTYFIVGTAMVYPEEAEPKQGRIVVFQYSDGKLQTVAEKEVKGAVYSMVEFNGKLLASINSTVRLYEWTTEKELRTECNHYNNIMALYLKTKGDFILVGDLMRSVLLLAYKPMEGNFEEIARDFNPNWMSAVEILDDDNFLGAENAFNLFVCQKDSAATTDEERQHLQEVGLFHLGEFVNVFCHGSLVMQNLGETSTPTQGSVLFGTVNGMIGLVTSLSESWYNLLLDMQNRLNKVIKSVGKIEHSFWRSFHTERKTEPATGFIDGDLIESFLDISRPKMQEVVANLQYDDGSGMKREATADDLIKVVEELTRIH
Chain of GSPT1 (P15170 whole entry): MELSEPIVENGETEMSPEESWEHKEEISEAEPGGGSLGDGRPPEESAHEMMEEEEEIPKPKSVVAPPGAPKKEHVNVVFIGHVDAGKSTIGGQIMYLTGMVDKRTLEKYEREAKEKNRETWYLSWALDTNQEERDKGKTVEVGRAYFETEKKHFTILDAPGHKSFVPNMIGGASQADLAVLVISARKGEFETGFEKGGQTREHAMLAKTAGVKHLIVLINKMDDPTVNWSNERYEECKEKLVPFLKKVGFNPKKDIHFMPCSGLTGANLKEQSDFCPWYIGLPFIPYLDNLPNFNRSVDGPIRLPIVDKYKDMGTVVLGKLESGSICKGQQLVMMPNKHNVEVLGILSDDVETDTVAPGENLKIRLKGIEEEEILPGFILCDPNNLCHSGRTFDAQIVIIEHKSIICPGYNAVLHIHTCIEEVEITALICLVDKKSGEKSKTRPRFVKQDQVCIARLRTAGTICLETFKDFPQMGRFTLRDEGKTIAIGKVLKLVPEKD
Chain of GSPT1 (Q96SW2 whole entry): as the sequence (Q96SW2 whole entry) above
Chain of GSPT1 (Q16531 whole entry partner): as the sequence (Q16531 whole entry partner) above

| SMILES | CK1α Ymin (CK1α) | DC50 (CK1α) | DC50 (GSPT1) | GSPT1 Ymin (GSPT1) |
| --- | --- | --- | --- | --- |
| Cn1cnc(-c2ccc3c(c2)CN(C2CCC(=O)NC2=O)C3=O)c1-c1ccc(C#N)s1 (stereo not drawn) [Example 342] | F (F = >75-100% remaining) | ≥ 25 nM | ≥ 25 nM | F (F = >75-100% remaining) |
| Cn1cnc(-c2ccc3c(c2)CN(C2CCC(=O)NC2=O)C3=O)c1-c1cccc(N)c1 (stereo not drawn) [Example 343] | C (C = 0-10% remaining) | < 25 nM | ≥ 25 nM | F (F = >75-100% remaining) |
| Cc1ccsc1-c1c(-c2ccc3c(c2)CN(C2CCC(=O)NC2=O)C3=O)ncn1C (stereo not drawn) [Example 344] | E (E = >25-75% remaining) | < 25 nM | ≥ 25 nM | F (F = >75-100% remaining) |
| COc1cccc(-c2c(-c3ccc4c(c3)CN(C3CCC(=O)NC3=O)C4=O)ncn2C)c1 (stereo not drawn) [Example 345] | E (E = >25-75% remaining) | < 25 nM | ≥ 25 nM | F (F = >75-100% remaining) |
| Cn1cnc(-c2ccc3c(c2)CN(C2CCC(=O)NC2=O)C3=O)c1-c1ccc2[nH]ccc2c1 (stereo not drawn) [Example 346] | D (D = >10- 25% remaining) | < 25 nM | ≥ 25 nM | F (F = >75-100% remaining) |
| Cn1cnc(-c2ccc3c(c2)CN(C2CCC(=O)NC2=O)C3=O)c1-c1ccccc1C1CC1 (stereo not drawn) [Example 347] | E (E = >25-75% remaining) | < 25 nM | ≥ 25 nM | F (F = >75-100% remaining) |
| Cn1cnc(-c2ccc3c(c2)CN(C2CCC(=O)NC2=O)C3=O)c1-c1ccsc1Cl (stereo not drawn) [Example 348] | E (E = >25-75% remaining) | < 25 nM | ≥ 25 nM | F (F = >75-100% remaining) |
| Cn1cnc(-c2ccc3c(c2)CN(C2CCC(=O)NC2=O)C3=O)c1-c1cccc2c1OCC2 (stereo not drawn) [Example 349] | C (C = 0-10% remaining) | < 25 nM | < 25 nM | F (F = >75-100% remaining) |
| Cn1cnc(-c2ccc3c(c2)CN(C2CCC(=O)NC2=O)C3=O)c1-c1cc(F)ccc1Cl (stereo not drawn) [Example 350] | D (D = >10- 25% remaining) | ≥ 25 nM | ≥ 25 nM | F (F = >75-100% remaining) |
| COc1cc(-c2c(-c3ccc4c(c3)CN(C3CCC(=O)NC3=O)C4=O)ncn2C)ccc1Cl (stereo not drawn) [Example 351] | D (D = >10- 25% remaining) | ≥ 25 nM | ≥ 25 nM | F (F = >75-100% remaining) |
| Cn1cnc(-c2ccc3c(c2)CN(C2CCC(=O)NC2=O)C3=O)c1-c1cccc(-c2cccnc2)c1 (stereo not drawn) [Example 352] | C (C = 0-10% remaining) | < 25 nM | ≥ 25 nM | F (F = >75-100% remaining) |
| Cn1cnc(-c2ccc3c(c2)CN(C2CCC(=O)NC2=O)C3=O)c1-c1ccc(N2CCOCC2)cc1 (stereo not drawn) [Example 353] | C (C = 0-10% remaining) | < 25 nM | < 25 nM | F (F = >75-100% remaining) |
| Cn1cnc(-c2ccc3c(c2)CN(C2CCC(=O)NC2=O)C3=O)c1-c1ccc(S(=O)(=O)N2CCCC2)cc1 (stereo not drawn) [Example 354] | E (E = >25-75% remaining) | < 25 nM | < 25 nM | F (F = >75-100% remaining) |
| CN1CCN(c2ccc(-c3c(-c4ccc5c(c4)CN(C4CCC(=O)NC4=O)C5=O)ncn3C)cc2)CC1 (stereo not drawn) [Example 355] | E (E = >25-75% remaining) | < 25 nM | ≥ 25 nM | F (F = >75-100% remaining) |
| Cn1cnc(-c2ccc3c(c2)CN(C2CCC(=O)NC2=O)C3=O)c1-c1ccc(NC(=O)c2ccccc2)cc1 (stereo not drawn) [Example 356] | F (F = >75-100% remaining) | ≥ 25 nM | ≥ 25 nM | F (F = >75-100% remaining) |
| CN1CCN(C(=O)c2cccc(-c3c(-c4ccc5c(c4)CN(C4CCC(=O)NC4=O)C5=O)ncn3C)c2)CC1 (stereo not drawn) [Example 357] | C (C = 0-10% remaining) | < 25 nM | ≥ 25 nM | F (F = >75-100% remaining) |

| SMILES | CK1α Ymin (CK1α) | DC50 (CK1α) | DC50 (GSPT1) | GSPT1 Ymin (GSPT1) |
| --- | --- | --- | --- | --- |
| COc1ccc(-c2c(-c3ccc4c(c3)CN(C3CCC(=O)NC3=O)C4=O)ncn2C)cc1OCc1ccccc1 (stereo not drawn) [Example 358] | E (E = >25-75% remaining) | < 25 nM | ≥ 25 nM | F (F = >75-100% remaining) |
| Cn1cnc(-c2ccc3c(c2)CN(C2CCC(=O)NC2=O)C3=O)c1-c1ccc(OCCCN2CCOCC2)cc1 (stereo not drawn) [Example 359] | E (E = >25-75% remaining) | < 25 nM | ≥ 25 nM | F (F = >75-100% remaining) |
| Cn1ncc(-c2ccc3c(c2)CN(C2CCC(=O)NC2=O)C3=O)c1-c1cccnc1 (stereo not drawn) [Example 360] | D (D = >10- 25% remaining) | < 25 nM | ≥ 25 nM | F (F = >75-100% remaining) |
| Cn1ncc(-c2ccc3c(c2)CN(C2CCC(=O)NC2=O)C3=O)c1-c1ccncc1 (stereo not drawn) [Example 361] | E (E = >25-75% remaining) | < 25 nM | ≥ 25 nM | F (F = >75-100% remaining) |
| Cn1ncc(-c2ccc3c(c2)CN(C2CCC(=O)NC2=O)C3=O)c1-c1cncnc1 (stereo not drawn) [Example 362] | E (E = >25-75% remaining) | < 25 nM | ≥ 25 nM | F (F = >75-100% remaining) |
| Cn1ccc(-c2c(-c3ccc4c(c3)CN(C3CCC(=O)NC3=O)C4=O)cnn2C)c1 (stereo not drawn) [Example 363] | C (C = 0-10% remaining) | < 25 nM | < 25 nM | F (F = >75-100% remaining) |
| Cc1occc1-c1c(-c2ccc3c(c2)CN(C2CCC(=O)NC2=O)C3=O)cnn1C (stereo not drawn) [Example 364] | D (D = >10- 25% remaining) | ≥ 25 nM | ≥ 25 nM | F (F = >75-100% remaining) |
| Cc1ccc(-c2c(-c3ccc4c(c3)CN(C3CCC(=O)NC3=O)C4=O)cnn2C)o1 (stereo not drawn) [Example 365] | D (D = >10- 25% remaining) | ≥ 25 nM | ≥ 25 nM | F (F = >75-100% remaining) |
| Cn1cc(-c2c(-c3ccc4c(c3)CN(C3CCC(=O)NC3=O)C4=O)cnn2C)cn1 (stereo not drawn) [Example 366] | C (C = 0-10% remaining) | < 25 nM | ≥ 25 nM | F (F = >75-100% remaining) |
| Cc1ccc(-c2c(-c3ccc4c(c3)CN(C3CCC(=O)NC3=O)C4=O)cnn2C)cn1 (stereo not drawn) [Example 367] | C (C = 0-10% remaining) | < 25 nM | < 25 nM | F (F = >75-100% remaining) |
| Cc1cc(-c2c(-c3ccc4c(c3)CN(C3CCC(=O)NC3=O)C4=O)cnn2C)ccn1 (stereo not drawn) [Example 368] | E (E = >25-75% remaining) | < 25 nM | < 25 nM | F (F = >75-100% remaining) |
| Cc1cncc(-c2c(-c3ccc4c(c3)CN(C3CCC(=O)NC3=O)C4=O)cnn2C)c1 (stereo not drawn) [Example 369] | F (F = >75-100% remaining) | ≥ 25 nM | ≥ 25 nM | F (F = >75-100% remaining) |
| Cn1ncc(-c2ccc3c(c2)CN(C2CCC(=O)NC2=O)C3=O)c1-c1ccc(N)nc1 (stereo not drawn) [Example 370] | E (E = >25-75% remaining) | ≥ 25 nM | ≥ 25 nM | – |
| Cn1ncc(-c2ccc3c(c2)CN(C2CCC(=O)NC2=O)C3=O)c1-c1cncc(N)c1 (stereo not drawn) [Example 371] | D (D = >10- 25% remaining) | ≥ 25 nM | ≥ 25 nM | F (F = >75-100% remaining) |
| Cc1c(-c2c(-c3ccc4c(c3)CN(C3CCC(=O)NC3=O)C4=O)cnn2C)cnn1C (stereo not drawn) [Example 372] | E (E = >25-75% remaining) | ≥ 25 nM | ≥ 25 nM | F (F = >75-100% remaining) |

— patent US20240158370A1, “CK1 alpha AND DUAL CK1 alpha / GSPT1 DEGRADING COMPOUNDS” (Innovo Therapeutics, Inc., priority 2022, published 2024)
